Like-named read-outs stand apart in the source and are kept apart here. Bounds are passed on as bounds.

Experiment [1] deals with A375 (BRAF V600E) cell line. The experiment is described as follows: A375 P-ERK inhibition assay (AlphaScreen). The class given is cell-based, human. The settings on record: Homo sapiens, A-375; A375_P-ERK. In outline: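 A375 cells treated with 8-point compound titration for 1 h at 37° C, then lysed. ERK1/2 Thr202/Tyr204 phosphorylation measured by AlphaScreen, using biotinylated total-ERK antibody on donor beads and phospho-specific antibody on acceptor beads.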
For orientation: Alpha assays give light when donor and acceptor beads are brought close together.

The subject of a further experiment is B9 (HRAS Q61L) cell line. In words: B9 P-ERK cell activation assay (AlphaScreen). Format: cell-based, mouse. The settings on record: Mus musculus, P-ERK cell activation, B9, read-out: Cell activity (EC50 μM) B9_pERK. Put shortly: (§1)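 Mouse B9 (HRAS-driven skin SCC) or human IPC-298 melanoma cells treated with an 8-point compound titration for one hour at 37° C., then lysed. ERK1/2 phosphorylation at Thr202/Tyr204 read by AlphaScreen with total-ERK and phospho-ERK antibodies.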

Experiment [2] has as its system IPC-298 (NRAS Q61L) cell line. In words: IPC-298 P-ERK cell activation assay (AlphaScreen). The class given is cell-based, human. As to conditions: Homo sapiens; P-ERK cell activation, IPC-298; numeric bounds; read-out: Cell activity (EC50 μM) IPC-298_P-ERK. In outline:
as §1

Another experiment concerns the target T1, BRAF V600E (Homo sapiens, UniProt P15056, V600E).
T1 construct: purchased Upstate Biotechnology
In words: BRAF V600E biochemical kinase activity assay (AlphaScreen, biotin-MEK1 substrate). The settings on record: BRAF V600E biochemical inhibitory activity.

T1 sequence (P15056 whole entry V600E): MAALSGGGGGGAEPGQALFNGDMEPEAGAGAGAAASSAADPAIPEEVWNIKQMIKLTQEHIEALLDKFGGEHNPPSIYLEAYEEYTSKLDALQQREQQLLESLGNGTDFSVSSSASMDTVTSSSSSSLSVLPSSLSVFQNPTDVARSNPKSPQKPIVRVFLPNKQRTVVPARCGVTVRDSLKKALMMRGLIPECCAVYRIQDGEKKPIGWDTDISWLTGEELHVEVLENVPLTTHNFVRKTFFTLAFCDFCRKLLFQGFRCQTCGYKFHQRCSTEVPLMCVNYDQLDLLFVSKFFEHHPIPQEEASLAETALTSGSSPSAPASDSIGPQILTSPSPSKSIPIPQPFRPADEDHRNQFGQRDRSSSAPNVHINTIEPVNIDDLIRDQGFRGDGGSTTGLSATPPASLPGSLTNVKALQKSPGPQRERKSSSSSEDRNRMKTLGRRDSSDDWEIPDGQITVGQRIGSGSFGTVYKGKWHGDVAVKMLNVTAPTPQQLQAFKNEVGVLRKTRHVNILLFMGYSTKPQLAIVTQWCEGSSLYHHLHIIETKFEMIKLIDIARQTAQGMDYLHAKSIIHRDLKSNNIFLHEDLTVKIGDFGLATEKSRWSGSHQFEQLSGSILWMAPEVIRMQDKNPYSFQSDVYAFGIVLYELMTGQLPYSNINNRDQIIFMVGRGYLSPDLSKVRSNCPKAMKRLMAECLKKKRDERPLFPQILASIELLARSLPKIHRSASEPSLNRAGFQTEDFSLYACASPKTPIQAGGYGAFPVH

`COC(=O)N[C@@H](C)CNc1nccc(-c2nn(C(C)C)cc2-c2cc(Cl)cc(NS(=O)(=O)N3CC[C@@H](F)C3)c2F)n1` [P-2161, methyl N-[(1S)-2-[[4-[4-[5-chloro-2-fluoro-3-[[(3R)-3-fluoropyrrolidin-1-yl]sulfonylamino]phenyl]-1-isopropyl-pyrazol-3-yl]pyrimidin-2-yl]amino]-1-methyl-ethyl]carbamate]: the IC50 (in experiment [1]; against BRAF V600E) was 0.0001 to 1 µM each time. The EC50 (as a rule, the concentration giving half of the maximal effect) was 0.0001 to 1 µM with B9 (HRAS Q61L) cell line (class symbols) and more than 10 µM in experiment [2].

In the case of `COc1ccnc2[nH]cc(C(=O)c3c(F)ccc(NS(=O)(=O)N4CCCC4)c3F)c12` [Compound P-2003, N-[2,4-difluoro-3-(4-methoxy-1H-pyrrolo[2,3-b]pyridine-3-carbonyl)phenyl]pyrrolidine-1-sulfonamide], the IC50 (in experiment [1]; against BRAF V600E) was 0.0001 to 1 µM throughout. Also, the EC50 (with B9 (HRAS Q61L) cell line (numeric bounds); in experiment [2]) was more than 10 µM in each case.

As to `O=C(c1c(F)ccc(NS(=O)(=O)C2CCCCC2)c1F)c1c[nH]c2nccc(Cl)c12` [P-2014, N-[3-(4-chloro-1H-pyrrolo[2,3-b]pyridine-3-carbonyl)-2,4-difluoro-phenyl]cyclohexanesulfonamide], the IC50 (in experiment [1]; against BRAF V600E) was 0.0001 to 1 µM throughout. The EC50 (in the experiment on B9 (HRAS Q61L) cell line (numeric bounds); in experiment [2]) was more than 10 µM in each case.

On to `O=C(c1cc(C(F)(F)F)cc(NS(=O)(=O)N2CC[C@@H](F)C2)c1F)c1c[nH]c2ncc(-c3cnc(C4CC4)nc3)cc12` [P-2178, (3R)—N-[3-[5-(2-cyclopropylpyrimidin-5-yl)-1H-pyrrolo[2,3-b]pyridine-3-carbonyl]-2-fluoro-5-(trifluoromethyl)phenyl]-3-fluoro-pyrrolidine-1-sulfonamide], for which the half-inhibitory concentration (IC50) – broadly, the concentration needed to halve the response being measured – in experiment [1] fell in the range of 1 to 10 µM; against BRAF V600E, 0.0001 to 1 µM. The EC50 (in the experiment with B9 (HRAS Q61L) cell line (numeric bounds); in experiment [2]) was more than 10 µM each time.

Consider `O=C(c1cccc(NS(=O)(=O)N2CCCC2)c1F)c1c[nH]c2ncnc(NCCN3CCOCC3)c12` [P-2110, N-[2-fluoro-3-[4-(2-morpholinoethylamino)-7H-pyrrolo[2,3-d]pyrimidine-5-carbonyl]phenyl]pyrrolidine-1-sulfonamide], for which the IC50 (in experiment [1]; at BRAF V600E) was 0.0001 to 1 µM throughout. Further, the EC50 (in the experiment on B9 (HRAS Q61L) cell line (numeric bounds); in experiment [2]) was more than 10 µM in each case.

On to `CC(=O)Nc1ccc(NC(=O)c2c(F)ccc(NS(=O)(=O)N3CCCC3)c2F)cn1` [P-2036, N-(6-acetamido-3-pyridyl)-2,6-difluoro-3-(pyrrolidin-1-ylsulfonylamino)benzamide], for which the IC50 (in experiment [1]; on BRAF V600E) was 1 to 10 µM throughout. Also, the EC50 (in the experiment with B9 (HRAS Q61L) cell line (numeric bounds); in experiment [2]) was more than 10 µM throughout.

Turning to `CNc1ncnc2[nH]cc(C(=O)c3cccc(NS(=O)(=O)N4CCCC4)c3F)c12` [P-2071, N-[2-fluoro-3-[4-(methylamino)-7H-pyrrolo[2,3-d]pyrimidine-5-carbonyl]phenyl]pyrrolidine-1-sulfonamide], the IC50 (in experiment [1]; at BRAF V600E) was 0.0001 to 1 µM each time. Moreover, the EC50 (in the experiment with B9 (HRAS Q61L) cell line (numeric bounds); in experiment [2]) was more than 10 µM throughout.

On to `O=C(c1cccc(NS(=O)(=O)N2CCCC2)c1F)c1c[nH]c2ncnc(NC3CCC3)c12` [P-2081, N-[3-[4-(cyclobutylamino)-7H-pyrrolo[2,3-d]pyrimidine-5-carbonyl]-2-fluoro-phenyl]pyrrolidine-1-sulfonamide], for which the IC50 (in experiment [1]; at BRAF V600E) was 0.0001 to 1 µM in each case. For the same compound, the EC50 (in the experiment with B9 (HRAS Q61L) cell line (numeric bounds); in experiment [2]) was more than 10 µM throughout.

Take `CCN(C)S(=O)(=O)Nc1cccc(C(=O)c2c[nH]c3ncnc(C4CC4)c23)c1F` [P-2091, 4-cyclopropyl-5-[3-[[ethyl(methyl)sulfamoyl]amino]-2-fluoro-benzoyl]-7H-pyrrolo[2,3-d]pyrimidine]: the IC50 (in experiment [1]; on BRAF V600E) was 0.0001 to 1 µM in each case. For the same compound, the EC50 (in the experiment on B9 (HRAS Q61L) cell line (numeric bounds); in experiment [2]) was more than 10 µM throughout.

Turning to `O=C(c1c(F)ccc(NS(=O)(=O)C2CCOCC2)c1F)c1c[nH]c2ncnc(NCC3CC3)c12` [P-2058, N-[3-[4-(cyclopropylmethylamino)-7H-pyrrolo[2,3-d]pyrimidine-5-carbonyl]-2,4-difluoro-phenyl]tetrahydropyran-4-sulfonamide], the IC50 (in experiment [1]; at BRAF V600E) was 0.0001 to 1 µM in each case. The EC50 (with B9 (HRAS Q61L) cell line (numeric bounds); in experiment [2]) was more than 10 µM in each case.

As to `O=C(c1c(F)ccc(NS(=O)(=O)C2CCCCC2)c1F)c1c[nH]c2ncncc12` [P-2027, N-[2,4-difluoro-3-(7H-pyrrolo[2,3-d]pyrimidine-5-carbonyl)phenyl]cyclohexanesulfonamide], the IC50 (in experiment [1]; against BRAF V600E) was 0.0001 to 1 µM each time. Also, the EC50 (with B9 (HRAS Q61L) cell line (numeric bounds); in experiment [2]) was more than 10 µM throughout.

Regarding `CCN(CC)S(=O)(=O)Nc1ccc(F)c(C(=O)c2c[nH]c3ncnc(NC(C)C)c23)c1F` [P-2042, 5-[3-(diethylsulfamoylamino)-2,6-difluoro-benzoyl]-4-(isopropylamino)-7H-pyrrolo[2,3-d]pyrimidine], the IC50 (in experiment [1]; against BRAF V600E) was 0.0001 to 1 µM throughout. Besides, the EC50 (in the experiment on B9 (HRAS Q61L) cell line (numeric bounds); in experiment [2]) was more than 10 µM in each case.

Regarding `CCN(C)S(=O)(=O)Nc1cccc(C(=O)c2c[nH]c3ncnc(NC4CCC4)c23)c1F` [P-2072, 4-(cyclobutylamino)-5-[3-[[ethyl(methyl)sulfamoyl]amino]-2-fluoro-benzoyl]-7H-pyrrolo[2,3-d]pyrimidine], the IC50 (in experiment [1]; against BRAF V600E) was 0.0001 to 1 µM throughout. For the same compound, the EC50 (in the experiment with B9 (HRAS Q61L) cell line (numeric bounds); in experiment [2]) was more than 10 µM in each case.

Turning to `CCCNc1ncnc2[nH]cc(C(=O)c3c(F)ccc(NS(=O)(=O)N(C)CC)c3F)c12` [P-2099, 5-[3-[[ethyl(methyl)sulfamoyl]amino]-2,6-difluoro-benzoyl]-4-(propylamino)-7H-pyrrolo[2,3-d]pyrimidine], the IC50 (in experiment [1]; against BRAF V600E) was 0.0001 to 1 µM throughout. The EC50 (in the experiment on B9 (HRAS Q61L) cell line (numeric bounds); in experiment [2]) was more than 10 µM in each case.

Take `CCN(C)S(=O)(=O)Nc1cccc(C(=O)c2c[nH]c3ncnc(C)c23)c1F` [P-2090, 5-[3-[[ethyl(methyl)sulfamoyl]amino]-2-fluoro-benzoyl]-4-methyl-7H-pyrrolo[2,3-d]pyrimidine]: the IC50 (in experiment [1]; at BRAF V600E) was 0.0001 to 1 µM in each case. Besides, the EC50 (in the experiment on B9 (HRAS Q61L) cell line (numeric bounds); in experiment [2]) was more than 10 µM in each case.

As for `CCN(C)S(=O)(=O)Nc1ccc(F)c(C(=O)c2c[nH]c3ncnc(NCCCOC)c23)c1F` [P-2116, 5-[3-[[ethyl(methyl)sulfamoyl]amino]-2,6-difluoro-benzoyl]-4-(3-methoxypropylamino)-7H-pyrrolo[2,3-d]pyrimidine], the IC50 (in experiment [1]; on BRAF V600E) was 0.0001 to 1 µM in each case. In addition, the EC50 (with B9 (HRAS Q61L) cell line (numeric bounds); in experiment [2]) was more than 10 µM throughout.

For `CCN(C)S(=O)(=O)Nc1cccc(C(=O)c2c[nH]c3ncnc(NC4CCC(F)(F)CC4)c23)c1F` [P-2068, 4-[(4,4-difluorocyclohexyl)amino]-5-[3-[[ethyl(methyl)sulfamoyl]amino]-2-fluoro-benzoyl]-7H-pyrrolo[2,3-d]pyrimidine], the IC50 (in experiment [1]; at BRAF V600E) was 0.0001 to 1 µM each time. Also, the EC50 (in the experiment on B9 (HRAS Q61L) cell line (numeric bounds); in experiment [2]) was more than 10 µM throughout.
